Assay: Percentage of dimers by gas chromatography over time, 1-MCP/butane 1:1 and negative control
Assay type: physicochemical
Source text: 1-MCP and butane was mixed in liquid form in 1:1 ratio (v/v). Then, the mixture was transferred into the glass container.
Table 18 and FIG. 11 (plot line with circular data points) show the percentage of dimers in the composition as measured by gas chromatography at various points over time. The dotted line is a trend line that extrapolates the 1-MCP/butane plot. A negative control containing only 1-MCP was used for comparison. Table 19 and FIG. 11 (plot line with square data points) show the percentage of dimers in the negative control as measured by gas chromatography at the same points over time that the composition was measured.

For CC1=CC1 [negative control, 1-methylcyclopropene], the “% of dimer” value (time 1 h) was 0.229%, the “% of dimer” value (time 3.75 h) was 0.401% and the “% of dimer” value (time 25.75 h) was 4.013%. The “% of dimer” value (time 123.5 h) was 49.588%.
